The source of these data is patent publication US20240125807A1, “METHOD FOR MEASURING RELATIVE fu RATIO BY DYNAMIC [sequence]” (Chugai Seiyaku Kabushiki Kaisha, priority 2020, published 2024).

Like-named read-outs stand apart in the source and are kept apart here.

A short description of series [1]: fu by static analysis (versus buffer), human serum (Reference Example). Conditions: 24 h, 10% serum fu corrected to serum concentration 1/1.
A short description of series [2]: fu ratio (serum/microsome) using fu value (microsome) and fu value (serum)=0.01 based on the FDA guidance, Reference Examples 21 to 27. In kind it is in vitro ADME, human. Conditions: fu value (microsome) of Reference Examples 14 to 20 and fu value (serum)=0.01 per FDA guidance (Reference Examples 21 to 27).
Series [3] in a line: Relative fu ratio (serum/microsome), human serum and human hepatic microsome, dynamic analysis. Conditions: human serum fu corrected to 1/1, human hepatic microsome 0.1 mg/mL.
Series [4] in a line: fu ratio (serum/microsome) from fu values by static analysis (versus buffer), Reference Examples 14 to 20. The format is in vitro ADME, human. Conditions: from fu values of Reference Examples 14 to 20 (static analysis versus buffer).
The target of series [5] is T1, CYP3A4 (Homo sapiens, UniProt P08684). The series can be described thus: Inhibition constant Ki in human hepatic microsome with midazolam as CYP3A4 probe substrate. The procedure:
For predicting the DDI risk, midazolam that is a CYP3A4 substrate was used as a probe compound to determine an inhibition constant Ki value of each compound in human hepatic microsome.
To 5 μL of a solution of midazolam dissolved therein at 50 mmol/L was added 70 μL of a 50% acetonitrile solution to obtain 75 μL in total of a solution. […] To 25 mg of commercially available β-NADPH (Wako Pure Chemical Industries, Ltd.) was added 3000 μL of a phosphate buffer at 0.1 mol/L to obtain a NADPH solution (10 mmol/L). The prepared solutions were mixed in the following order to obtain an inhibition reaction solution (100 μL in total), and the solution was reacted for 5 minutes with stirring at 37° C. where the time immediately after addition of the NADPH solution was defined as 0 minute after the start of the reaction.
The thus-obtained sample was used as a LCMS measurement solution. Two sets of the LCMS measurement solution were prepared, with one intended for quantitative determination of 1-hydroxymidazolam generated by metabolic reaction and the other intended for measurement of the actual concentration of a compound to be measured (inhibitor). Each set was used for LCMS quantitative analysis.
Therefore, the determined IC50 was directly used as Ki value.

For series [6] the following is noted: cited from earlier work.
Series [7] is described as follows: in vitro. Conditions: human, serum.
The nature of series [8]: in vitro. Conditions: rat.
The target of series [9] is T1, CYP3A4. Also noted: unit not given beside the values. Particulars: in vivo, cited from earlier work.
Series [10] is described as follows: fu value (microsome) by static analysis (versus buffer), Reference Examples 14 to 20. In kind it is in vitro ADME. Particulars: human, human hepatic microsomes 0.1 mg/mL dialysed against buffer, microsome 0.1 mg/mL.
For series [11] the following is noted: serum, 24 h, 0.2 μmol/L.
The conditions of series [12]: serum, 24 h, 0.2 μmol/L. The source holds these as a separate data set.
The target of series [13] is T1, CYP3A4. Conditions: read-out: Km value; midazolam as CYP3A4 substrate, suggested in the literature; cited from earlier work.
Series [14] in a line: Relative fu ratio rat/human, equilibrium dialysis serum versus serum, dynamic analysis. Particulars: Examples 4 to 13: 10% serum, analyte 0.2 μmol/L, 0.5-24 h.
For series [15] the following is noted: rat and human, 24 h, 0.2 μmol/L.
The nature of series [16]: fu by static analysis (versus buffer), rat serum (Reference Example). Particulars: Reference Examples 4 to 13: 10% serum versus buffer, 24 h.

T1 sequence (P08684 whole entry): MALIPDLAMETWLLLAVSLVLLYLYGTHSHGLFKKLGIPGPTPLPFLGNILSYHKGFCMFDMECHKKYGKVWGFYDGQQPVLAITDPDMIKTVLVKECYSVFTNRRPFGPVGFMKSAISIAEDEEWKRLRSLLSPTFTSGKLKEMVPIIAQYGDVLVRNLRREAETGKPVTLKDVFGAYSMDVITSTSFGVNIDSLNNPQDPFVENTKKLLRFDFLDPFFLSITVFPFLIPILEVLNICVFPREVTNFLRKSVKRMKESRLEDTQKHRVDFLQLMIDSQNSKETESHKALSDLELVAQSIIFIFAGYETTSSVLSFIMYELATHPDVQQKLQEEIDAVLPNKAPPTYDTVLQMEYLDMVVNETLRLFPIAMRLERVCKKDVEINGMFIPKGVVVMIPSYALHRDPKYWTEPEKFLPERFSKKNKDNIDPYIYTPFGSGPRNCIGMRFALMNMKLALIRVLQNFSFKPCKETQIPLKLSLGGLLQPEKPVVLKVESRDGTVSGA

Take `CCCSc1nc(N[C@@H]2C[C@H]2c2ccc(F)c(F)c2)c2nnn([C@@H]3C[C@H](OCCO)[C@@H](O)[C@H]3O)c2n1` [Tikaglera]: in series [1], the “Human serum (serum concentration: 1/1) (fu value)” value amounted to 0.0032. For the same compound, the “fu ratio (serum/microsome)” value was found to be 0.0207 in [2] and 0.0065 in [4]. For the same compound, in series [3], the “fu ratio (scrum/microsome)” value was determined as 0.0103. For the same compound, the Ki value result at CYP3A4 [5] (human hepatic microsome, midazolam 0.33 μmol/L, IC50 used as Ki) was “maximum addition concentration”. Further, the Ki at CYP3A4 [5] (read-out: Ki value, human hepatic microsome, midazolam 0.33 μmol/L as CYP3A4 substrate, IC50 directly used as Ki) is not below 87 µM. In addition, the highest concentration (Cmax) in series [6] (Dose 90 mg) is 0.403 µg/mL.

As to `O=C1CCc2ccc(OCCCCN3CCN(c4cccc(Cl)c4Cl)CC3)cc2N1` [Aripiprazole], the values for the fraction unbound in the series “in vitro [7]” (Human (fu value)), in “in vitro [7]” (Human serum (serum concentration: 1/1) (fu value)) and in the series “in vitro [8]” (serum) were 0.002, 0.0021 and 0.003, respectively. Besides, the Cmax in series [6] (Dose 15 mg) was 0.242 µg/mL.

Take `C[C@]12C=CC(=O)N[C@@H]1CC[C@@H]1[C@@H]2CC[C@]2(C)[C@@H](C(=O)Nc3cc(C(F)(F)F)ccc3C(F)(F)F)CC[C@@H]12` [Dutasteride]: the fraction unbound at 24 h, 0.2 μmol/L in “in vitro [7]” was determined as 0.006; in the series “in vitro [8]” (serum), 0.009.

`c1ccc(Cc2nn[nH]n2)c(COc2ccc(OCc3ccc4ccccc4n3)cc2)c1` [RG12525]: the “AUCR (observed value)” value was 1.09 on CYP3A4 [9] (100 mg) and 1.01 at CYP3A4 [9] (600 mg). In addition, in [10], the fraction unbound at 24 h, 1 μmol/L came out at 0.77. In addition, the “fu ratio (serum/microsome)” value in series [2] came to 0.0129; in series [4], 0.0005. The compound further gave a Ki at CYP3A4 [5] of 1.49 µM. Also, the figures for the Cmax in series [6] (Dose 100 mg) and in [6] (Dose 600 mg) were 1.482 µg/mL and 8.186 µg/mL, respectively.

As for `CC(=O)N1CCN(c2ccc(OCC3COC(Cn4ccnc4)(c4ccc(Cl)cc4Cl)O3)cc2)CC1` (stereo not shown) [Ketoconazole], the Cmax was 4.68136 µg/mL in [6] (Dose 200 mg) and 5.87728 µg/mL in series [6] (Dose 400 mg).

`O=C(O)c1ccc(-n2nc(-c3ccccc3O)nc2-c2ccccc2O)cc1` [Deferasirox]: the “AUCR (observed value)” value at CYP3A4 [9] (210 mg) is 0.90. Moreover, the “fu ratio (serum/microsome)” value in series [2] came out at 0.0099; in [4], 0.0046. Besides, the fraction unbound at 24 h, 0.2 μmol/L in the series “in vitro [8]” (serum) was determined as 0.02. At CYP3A4 [5], this compound yielded an inhibition constant (Ki) not below 49 µM. For the same compound, the Ki value result at CYP3A4 [5] (microsomes) is reported as “maximum addition concentration”. In series [11], the “Human (fu value)” value came to 0.005. In addition, in series [6] (Dose 210 mg), the Cmax is 40.327 µg/mL.

In the case of `C=C[C@@H]1C[C@]1(NC(=O)[C@@H]1C[C@@H](Oc2ncc(OC)c3ccc(Cl)cc23)CN1C(=O)[C@@H](NC(=O)OC(C)(C)C)C(C)(C)C)C(=O)NS(=O)(=O)C1CC1` [Asunaprevir], the fraction unbound at 24 h, 0.2 μmol/L in “in vitro [7]” worked out at 0.005; in the series “in vitro [8]” it was 0.008.

For `CCC(C)n1ncn(-c2ccc(N3CCN(c4ccc(OCC5COC(Cn6cncn6)(c6ccc(Cl)cc6Cl)O5)cc4)CC3)cc2)c1=O` (stereo not shown) [Itraconazole], the figures for the “AUCR (observed value)” value at CYP3A4 [9] (50 mg), on CYP3A4 [9] (200 mg) and at CYP3A4 [9] (400 mg) were 1.91, 5.05 and 5.07, respectively. Also, in [10], the fraction unbound at 24 h, 1 μmol/L was determined as 0.77. Also, the results for the Cmax in series [6] (Dose 50 mg), in series [6] (Dose 200 mg) and in [6] (Dose 400 mg) were 0.01411 µg/mL, 0.16393 µg/mL and 0.31752 µg/mL, respectively.

`C=CC(=O)N1CCC[C@@H](n2nc(-c3ccc(Oc4ccccc4)cc3)c3c(N)ncnc32)C1` [Ibrutinib]: the fraction unbound at 24 h, 0.2 μmol/L amounted to 0.019 in the series “in vitro [7]” and 0.007 in “in vitro [8]” (serum).

In the case of `COC(=O)N[C@H](C(=O)N1CCC[C@H]1c1nc(-c2ccc3c(c2)O[C@@H](c2ccccc2)n2c-3cc3cc(-c4c[nH]c([C@@H]5CCCN5C(=O)[C@@H](NC(=O)OC)C(C)C)n4)ccc32)c[nH]1)C(C)C` [Elbasvir], the “Rat (fu value)” value in [12] turned out to be 0.001. The “Human (fu value)” value in [11] is on record as 0.001.

As for `COc1ccc2c(c1)[C@@H]1C[C@]1(C(=O)N1[C@@H]3CC[C@H]1CN(C)C3)Cn1c-2c(C2CCCCC2)c2ccc(C(=O)NS(=O)(=O)N(C)C)cc21` [Beclabuvir], the fraction unbound at 24 h, 0.2 μmol/L came out at 0.007 in the series “in vitro [7]” and 0.008 in “in vitro [8]” (serum).

In [10], `CS(=O)(=O)CCNCc1ccc(-c2ccc3ncnc(Nc4ccc(OCc5cccc(F)c5)c(Cl)c4)c3c2)o1` [Lapatinib] registered a fraction unbound at 24 h, 1 μmol/L of 0.05.

Compound `O=C(NC1CCN(CCCCC2(C(=O)NCC(F)(F)F)c3ccccc3-c3ccccc32)CC1)c1ccccc1-c1ccc(C(F)(F)F)cc1` [Lomitapide] displayed a fraction unbound at 24 h, 0.2 μmol/L in the series “in vitro [8]” (serum) of 0.006. Moreover, in series [11], the “Human (fu value)” value turned out to be 0.002.

In the case of `Cc1ncc2n1-c1ccc(Cl)cc1C(c1ccccc1F)=NC2` [midazolam], at CYP3A4 [13], the Km is 2.06 µM.

For `CNC(=O)c1ccc(N2C(=S)N(c3cnc(C#N)c(C(F)(F)F)c3)C(=O)C23CCC3)cc1F` [Apalutamide], the figures for the fraction unbound at 24 h, 0.2 μmol/L in “in vitro [7]” and in the series “in vitro [8]” were 0.03 and 0.104, respectively. The “fu ratio (rat/human)” value in series [14] is given as 2.50; in series [15], 3.36; in series [16] it was 2.30.

By Ki is commonly meant the equilibrium dissociation constant of an inhibitor or competing ligand from its target. In general, Cmax refers to the peak of the concentration-time curve. For orientation: fraction unbound means free concentration divided by total concentration. Broadly, the Km is the substrate concentration at which the rate is half of its maximum.
